Measured values taken from paper PMC10302753, “Natural-Product-Inspired Microwave-Assisted Synthesis of Novel Spirooxindoles as Antileishmanial Agents: Synthesis, Stereochemical Assignment, Bioevaluation, SAR, and Molecular Docking Studies” (Molecules, 2023).
Entries after “also recorded” stand apart in the source; their conditions may differ. Where two headings read alike, the source gives them in different places.

Experiments:
[1] = target: Leishmania DNA topoisomerase type IB (purified recombinant LTopIB) (Leishmania donovani, UniProt A0A3Q8IHS4+Q8WQM6); assay: Plasmid relaxation assay (relaxation of supercoiled plasmid DNA); assay type: biochemical; settings: for LTopIB inhibition, result in words: recombinant enzyme in vitro, initial test at 100 µM, then dose/response
Method: The relaxation of supercoiled plasmid DNA is the method used for the determination of LTopIB activity. Various doses of each compound were treated with one unit of pure LTopIB (the enzyme to relax 0.5 µg of supercoiled DNA for 30 min at 37 °C) for 20 min at 4 °C. The reaction mixture, including 0.5 μg of supercoiled pBluescript SK(−) plasmid, 10 mM Tris-HCl buffer pH 7.5, 5 mM MgCl2, 0.1 mM EDTA, 15 µg/mL of bovine serum albumin, and 150 mM KCl, was then added in a final volume of 20 μL. After 30 min at 37 °C, the reaction mixtures were stopped by adding 4 μL of loading buffer, which included 5% sarkosyl, 0.12% bromophenol blue, and 25% glycerol. By electrophoresis, the topoisomers were separated on 1% agarose gels and electrophoresed at 2 V/cm for 16 h in a 0.1 M Tris-borate-EDTA buffer (pH 8.0) after being stained with ethidium bromide (0.5 µg/mL). Plotting the percentage of supercoiled DNA versus drug concentrations allowed researchers to determine the 50% inhibition concentration (IC50) values of LTopIB inhibition as the 50% reduction of supercoiled DNA [72].
Because of the presence of spirooxindole systems in the structure of these compounds, we aimed to assess their inhibitory potential on purified recombinant LTopIB measuring the relaxation of supercoiled plasmid DNA. In this regard, all spirooxindole derivatives were assessed for LTopIB inhibition through the prevention of DNA relaxation in a circular DNA plasmid. […] After this initial test, potential inhibitor dose/response curves were performed to obtain their IC50 values. […]
The relaxation of supercoiled plasmid DNA is the method used for the determination of LTopIB activity.
Various doses of each compound were treated with one unit of pure LTopIB (the enzyme to relax 0.5 µg of supercoiled DNA for 30 min at 37 °C) for 20 min at 4 °C. The reaction mixture including 0.5 μg of supercoiled pBluescript SK(−) plasmid, 10 mM Tris-HCl buffer pH 7.5, 5 mM MgCl2, 0.1 mM EDTA, 15 µg/mL bovine serum albumin, and 150 mM KCl was then added in a final volume of 20 μL. After 30 minutes at 37 °C, the reaction mixtures were stopped by adding 4 μL of loading buffer, which included 5% sarkosyl, 0.12% bromophenol blue, and 25% glycerol. By electrophoresis, the topoisomers were separated in 1% agarose gels were electrophoresed at 2 V/cm for 16 hours in a 0.1 M Tris-borate-EDTA buffer (pH 8.0) after being stained with ethidium bromide (0.5 µg/mL). Plotting the percentage of supercoiled DNA versus drug concentrations allowed researchers to determine the 50% inhibition concentration (IC50) values of LTopIB inhibition as the 50% reduction of supercoiled DNA. […]

[2] = test system: promastigotes of Leishmania donovani (MHOM/IN/1983/AG83); assay: In vitro antileishmanial activity, Trypan blue dye exclusion method; assay type: cell-based; settings: 72 h, L. donovani promastigotes, 22 ± 1 °C, 50% growth inhibition, read-out: IC50 Using Trypan Blue Dye Exclusion Method
Method: The compounds (23a–f, 24a–f, and 25a–g) were initially screened for their in vitro antileishmanial activity against promastigotes of Leishmania donovani (MHOM/IN/1983/AG83) utilizing the Trypan blue dye exclusion method and the plasmid relaxation assay using amphotericin B and camphothesin as standard reference drugs, respectively.
The promastigotes were harvested from the culture vials, counted, and 2 × 10^6 cells/well were seeded in a 48-well culture plate. The antileishmanial screening of all the derivatives, 23a–f, 24a–f, and 25a–g, as well as the positive control, was performed at various concentrations (2 μg/mL, 4 μg/mL, 8 μg/mL, and 16 μg/mL) added in triplicate. The plate was incubated at 22 ± 1 °C in the BOD incubator for 72 h. After 72 h, each well was counted for the number of viable parasites using the Trypan blue dye exclusion method, and the percentage growth inhibition was calculated by using the formula: Percentage viability=No. of viable cells in treated well/No. of viable cells in blank well×100 Percentage growth inhibition = 100 − percentage viability […]
The IC50 (inhibitory concentration at which 50% of the parasites were dead) value was obtained by plotting a linear dose–response curve in SPSS software (Version 23). […]
Parasite strain and culture conditions:
The SSG-sensitive Indian strain of Leishmania donovani (MHOM/IN/1983/AG83) obtained from CSIR-IICB, Kolkata, was used for the study. The promastigotes of these strains were maintained in Medium 199+10% FCS (Foetal Calf Serum) by serial sub-culturing at an ambient temperature of 22±1°C every 72 […]
In vitro antileishmanial activity
Trypan blue dye exclusion method
For carrying out the antileishmanial activity in vitro, promastigotes of Leishmania donovani were used.
The promastigotes were harvested from the culture vials, counted, and 2 × 10^6 cells/well were seeded in a 48-well culture plate. Further, compounds at various concentrations (2 μg/mL, 4 μg/mL, 8 μg/mL and 16 μg/mL) were added in triplets. No drug was added to the well serving as a blank, and amphotericin B was added to the well serving as the positive control. The plate was incubated at 22 ± 1°C in the BOD incubator for 72 hours. After 72 hours, each well was counted for the number of viable parasites using the trypan blue dye exclusion method, and the percentage growth inhibition was calculated by using the formula:
Percentage growth inhibition = 100 – percentage viability
IC50 (inhibitory concentration at which 50% of the parasites were dead) was obtained by plotting a linear dose-response curve in SPSS software (Version 23). […]
8.0) after being stained with ethidium bromide (0.5 µg/mL). Plotting the percentage of supercoiled DNA versus drug concentrations allowed researchers to determine the 50% inhibition concentration (IC50) values of LTopIB inhibition as the 50% reduction of supercoiled DNA.
Characterization data of spirooxindole derivatives (23a-f, 24a-f, 25a-g).
(1'S,2'R,3S,7a'S)-1'-(4-chlorophenyl)-2'-(4-fluorobenzoyl)-5-methyl-1',2',5',6',7',7a'-hexahydrospiro [indoline-3,3'-pyrrolizin]-2-one (23a): The product was synthesized utilizing the microwave-irradiated approach, and purified by column chromatography over silica gel using hexane/EtOAc (8:2) as an eluent; Physical Appearance: light yellow solid; Yield: 98%; Rf (EtOAc/hexane: 1:1) = 0.48; m.p. 182-184 °C; […]
(1'S,2'R,3S,7a'S)-5-fluoro-2'-(4-fluorobenzoyl)-1'-(4-methoxyphenyl)-1',2',5',6',7',7a'-hexahydro spiro[indoline-3,3'-pyrrolizin]-2-one (23b): The product was synthesized utilizing the microwave-irradiated approach, and purified by column chromatography over silica gel using hexane/EtOAc (7:3) as an eluent; Physical Appearance: light yellow solid; Yield: 66%; Rf (EtOAc/hexane: 1:1) = 0.45; m.p. 161-

[3] = LTopIB inhibition, 50% reduction of supercoiled DNA, read-out: IC50 Using Plasmid Relaxation Assay

Leishmania DNA topoisomerase type IB (purified recombinant LTopIB), sequence (Q8WQM6 entry or part of it): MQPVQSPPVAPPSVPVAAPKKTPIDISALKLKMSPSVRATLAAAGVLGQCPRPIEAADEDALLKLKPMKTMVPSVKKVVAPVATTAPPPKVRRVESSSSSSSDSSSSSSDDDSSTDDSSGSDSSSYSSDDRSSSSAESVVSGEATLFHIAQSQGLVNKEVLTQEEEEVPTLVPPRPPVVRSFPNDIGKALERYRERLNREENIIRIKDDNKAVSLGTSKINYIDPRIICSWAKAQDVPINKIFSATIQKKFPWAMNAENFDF
Leishmania DNA topoisomerase type IB (purified recombinant LTopIB), sequence (A0A3Q8IHS4 entry or part of it): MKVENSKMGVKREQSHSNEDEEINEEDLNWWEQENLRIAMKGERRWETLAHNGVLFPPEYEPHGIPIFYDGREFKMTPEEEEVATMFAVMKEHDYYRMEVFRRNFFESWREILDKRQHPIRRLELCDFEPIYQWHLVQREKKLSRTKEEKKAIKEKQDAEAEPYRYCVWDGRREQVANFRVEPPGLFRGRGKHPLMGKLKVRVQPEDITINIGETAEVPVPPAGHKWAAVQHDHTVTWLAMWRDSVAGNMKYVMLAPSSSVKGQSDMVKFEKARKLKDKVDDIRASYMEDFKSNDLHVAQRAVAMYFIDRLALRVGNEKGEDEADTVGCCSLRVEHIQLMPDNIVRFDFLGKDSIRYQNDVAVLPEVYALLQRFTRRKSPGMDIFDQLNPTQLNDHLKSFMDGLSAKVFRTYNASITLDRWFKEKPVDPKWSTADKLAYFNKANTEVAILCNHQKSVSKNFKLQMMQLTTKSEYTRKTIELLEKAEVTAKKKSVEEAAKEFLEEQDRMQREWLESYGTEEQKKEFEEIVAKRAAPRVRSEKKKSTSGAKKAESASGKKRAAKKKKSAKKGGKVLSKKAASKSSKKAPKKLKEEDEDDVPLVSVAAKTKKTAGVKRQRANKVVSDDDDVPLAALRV

Row | IC50 [1, 3] [µM] | melting point [°C] | SMILES | LTopIB inhibition, result in words [1] | IC50 ([2]; Leishmania donovani) [µM] | IC50 [2] [µM] | IC50 [1] [µM]
1 | 27.2 |  | COc1ccc(C2C(Cc3c[nH]c4ccccc34)NC3(C(=O)Nc4ccc(F)cc43)C2C(=O)c2ccc(C3CCCCC3)cc2)cc1 (stereo not shown) [25d] | showed potential results; also recorded: potent LTopIB inhibitors; also recorded: able to inhibit the recombinant enzyme in vitro | 3.55 |  | 
2 |  | 142 to 145 | COc1ccc2c(c1)C1(NC(Cc3cc4ccccc4[nH]3)C(c3ccc(Cl)cc3)C1C(=O)c1ccc(F)cc1)C(=O)N2 (stereo not shown) [25g] |  |  |  | 
3 | 89.1 | 118 to 120 | COc1ccc([C@H]2[C@H](Cc3cc4ccccc4[nH]3)N[C@@]3(C(=O)Nc4ccccc43)[C@@H]2C(=O)c2ccc(Br)cc2)cc1 [25b] |  | > 10 |  | 
4 |  | 154 to 156 | COc1ccc(C2C(Cc3cc4ccccc4[nH]3)NC3(C(=O)Nc4ccc(Br)cc43)C2C(=O)c2ccc(F)cc2)cc1 (stereo not shown) [25a] |  |  |  | 
5 | > 100 | 104 to 106 | O=C(c1ccc(F)cc1)[C@@H]1[C@@H](c2ccc(Cl)cc2)[C@H](Cc2ccccc2)N[C@@]12C(=O)Nc1ccccc12 [24d] |  | > 20 |  | 
6 |  | 172 to 174 | O=C(c1ccc(F)cc1)C1C(c2ccc(Cl)cc2)C(Cc2cc3ccccc3[nH]2)NC12C(=O)Nc1ccc([N+](=O)[O-])cc12 (stereo not shown) [25f] |  |  |  | 
7 | 17.3 |  | COc1ccc2c(c1)[C@]1(N[C@@H](Cc3ccccc3)[C@H](c3ccc(Cl)cc3)[C@H]1C(=O)c1ccc([N+](=O)[O-])cc1)C(=O)N2 [24a] | showed potential results; also recorded: potent LTopIB inhibitors; also recorded: able to inhibit the recombinant enzyme in vitro | 2.43 |  | 
8 |  | 138 to 140 | O=C(c1ccc(F)cc1)C1C(c2ccc(Cl)cc2)C(Cc2cc3ccccc3[nH]2)NC12C(=O)Nc1ccc(Br)cc12 (stereo not shown) [25c] |  |  |  | 
9 |  |  | C[C@@H]1[C@H](O)[C@@H](C)/C=C/C=C/C=C/C=C/C=C/C=C/C=C/[C@H](O[C@@H]2O[C@H](C)[C@@H](O)[C@H](N)[C@@H]2O)C[C@@H]2O[C@](O)(C[C@@H](O)C[C@@H](O)[C@H](O)CC[C@@H](O)C[C@@H](O)CC(=O)O[C@H]1C)C[C@H](O)[C@H]2C(=O)O [Amphotericin B, reference compound] |  | 0.06 |  | 
10 | 37.6 | 121 to 122 | Cc1ccc(C(=O)[C@@H]2[C@@H](c3ccc(Br)cc3)[C@H](Cc3ccccc3)N[C@@]23C(=O)Nc2ccc([N+](=O)[O-])cc23)cc1 [24b] |  | ≤ 10 | 5.36 | 
11 |  | 172 to 174 | CN(C)c1ccc(/C=N/N2C(=O)C(C#N)=CC23c2ccccc2NC2C=CC=CC23)cc1 (stereo not shown) [compound 18] |  |  |  | 
12 | > 100 | 135 to 137 | Cc1ccc2c(c1)[C@]1(N[C@@H](Cc3ccccc3)[C@H](c3ccc(Cl)cc3)[C@H]1C(=O)c1ccc([N+](=O)[O-])cc1)C(=O)N2 [24c] |  | > 20 |  | 
13 |  |  | CC[C@@]1(O)C(=O)OCc2c1cc1n(c2=O)Cc2cc3ccccc3nc2-1 [Camptothecin, reference compound] |  |  |  | 3
14 |  | 103 to 105 | COc1ccc(C2C(Cc3cc4ccccc4[nH]3)NC3(C(=O)Nc4ccc(C)cc43)C2C(=O)c2ccc(F)cc2)cc1 (stereo not shown) [25e] |  |  |  | 
15 | 19.6 |  | Cc1ccc(C(=O)C2C(c3ccc(Br)cc3)C(Cc3ccccc3)NC23C(=O)Nc2ccc(I)cc23)cc1 (stereo not shown) [24f] | showed potential results; also recorded: potent LTopIB inhibitors; also recorded: able to inhibit the recombinant enzyme in vitro | 1.62 |  | 
16 | 15.7 |  | O=C(c1ccc([N+](=O)[O-])cc1)[C@@H]1[C@@H](c2ccc(Cl)cc2)[C@H](Cc2ccccc2)N[C@@]12C(=O)Nc1c(Br)cccc12 [24e] | showed potential results; also recorded: potent LTopIB inhibitors; also recorded: able to inhibit the recombinant enzyme in vitro | 0.96 |  | 

Row | SMILES | IC50 [1, 3] [µM] | melting point [°C] | LTopIB inhibition, result in words [1] | IC50 ([2]; Leishmania donovani) [µM] | IC50 [2] [µM] | IC50 [1] [µM]
17 | COc1ccc([C@@H]2[C@@H](C(=O)c3ccc(F)cc3)[C@]3(C(=O)Nc4ccc(F)cc43)N3CCC[C@@H]23)cc1 [23b, (1'S,2'R,3S,7a'S)-5-fluoro-2'-(4-fluorobenzoyl)-1'-(4-methoxyphenyl)-1',2',5',6',7',7a'-hexahydrospiro[indoline-3,3'-pyrrolizin]-2-one] | > 100 | 161 to 163 |  | > 20 |  | 
18 | O=C(c1ccccc1)[C@@H]1[C@@H](c2ccccc2)[C@@H]2CCCN2[C@@]12C(=O)Nc1ccc(Br)cc12 [23f, (1′S,2′R,3S,7a’S)-2′-benzoyl-5-bromo-1′-phenyl-1′,2′,5′,6′,7′,7a’-hexahydrospiro[indolin-3,3′-pyrrolizin]-2-one] | > 100 | 175 to 177 |  | > 20 |  | 
19 | COc1ccc(C2C3CCCN3C3(C(=O)Nc4ccc([N+](=O)[O-])cc43)C2C(=O)c2ccc(Br)cc2)cc1 (stereo not shown) [23e] | > 100 | 111 to 113 |  | > 20 |  | 
20 | COc1ccc(C2C3CCCN3C3(C(=O)Nc4ccc(F)cc43)C2C(=O)c2ccc(Br)cc2)cc1 (stereo not shown) [23c] | > 100 | 126 to 128 |  | > 20 |  | 
21 | COc1ccc(C2C3CCCN3C3(C(=O)Nc4ccc(OC)cc43)C2C(=O)c2ccc(Br)cc2)cc1 (stereo not shown) [23d] | 53.6 | 107 to 109 |  | ≤ 10 | 7.78 | 
